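Protocol summary: plate cells (96-well), add compound at 5 concentrations, incubate 48 h, interpolate endpoints linearly. Abbreviation: GI50, concentration required for 50% inhibition of growth.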 The source made the active and inactive calls. No stated cut-off is given here; in the data, active = GI50 up to about 1.1 µM and inactive = higher.
Experiments:
Assay in all cases: NCI anticancer screen, dose series, 48 h
[1] = test system: SK-MEL-2
[2] = test system: SR
[3] = test system: HT-29
[4] = test system: OVCAR-3
[5] = test system: OVCAR-8
[6] = test system: 786-0
[7] = test system: ACHN
[8] = test system: Malme-3M
[9] = test system: NCI-H226
[10] = test system: NCI-H522
[11] = test system: M14
[12] = test system: HCT-116
[13] = test system: EKVX
[14] = test system: MOLT-4
[15] = test system: MCF7
[16] = test system: A498
[17] = test system: UACC-62
[18] = test system: NCI/ADR-RES
[19] = test system: NCI-H23
[20] = test system: RPMI-8226

Measured: GI50

CN1CCCOC(c2ccc([N+](=O)[O-])cc2)O1 (stereo unspecified)
inactive: [1] > 100 µM | [2] > 100 µM | [3] > 100 µM | [4] > 100 µM | [5] > 100 µM | [6] > 100 µM | [7] > 100 µM | [8] > 100 µM | [9] > 100 µM | [10] > 100 µM | [11] > 100 µM | [12] > 100 µM | [13] > 100 µM | [14] > 100 µM | [15] > 100 µM | [16] > 100 µM | [17] > 100 µM | [18] > 100 µM | [19] > 100 µM

CC1=C(C#N)c2nc3ccccc3n2C(=O)C1(C)CCO (stereo unspecified)
inactive: [1] > 100 µM | [2] 24.3 µM | [3] > 100 µM | [4] > 100 µM | [5] > 100 µM | [6] > 100 µM | [7] > 100 µM | [8] > 100 µM | [9] > 100 µM | [10] > 100 µM | [11] > 100 µM | [12] > 100 µM | [13] > 100 µM | [15] > 100 µM | [16] > 100 µM | [17] > 100 µM | [18] > 100 µM | [19] > 100 µM

CC(CC(C)[C@H]1CCC2[C@H]3C(CC[C@@]21C)[C@@]1(C)CCC(O)C[C@H]1C[C@@H]3O)C(=O)O (stereo partly specified)
inactive: [1] > 100 µM | [2] > 100 µM | [3] > 100 µM | [5] > 100 µM | [6] > 100 µM | [7] > 100 µM | [8] > 100 µM | [9] > 100 µM | [10] > 100 µM | [11] > 100 µM | [12] > 100 µM | [13] > 100 µM | [14] > 100 µM | [15] > 100 µM | [16] > 100 µM | [20] > 100 µM | [17] > 100 µM | [18] > 100 µM | [19] > 100 µM

Cc1ccccc1CN1CC2=C(CCN(Cc3ccccc3)C2=O)N2CCN=C12
inactive: [1] 4.81 µM | [2] 4.59 µM | [3] 5.31 µM | [4] 4.48 µM | [5] 4.76 µM | [6] 8.89 µM | [7] 6.61 µM | [9] 3.56 µM | [10] 3.73 µM | [11] 6.4 µM | [12] 4.06 µM | [13] 6.32 µM | [14] 9.66 µM | [15] 4.86 µM | [16] 13.1 µM | [20] 1.55 µM | [17] 11.1 µM | [18] 4.09 µM | [19] 4.62 µM

C=CCN1C(=O)/C(=C/c2ccco2)N=C1SC1OC(COC(C)=O)C(OC(C)=O)C(OC(C)=O)C1OC(C)=O (stereo unspecified)
inactive: [1] > 100 µM | [2] 38.9 µM | [4] > 100 µM | [5] > 100 µM | [7] > 100 µM | [8] 89.5 µM | [9] 78.3 µM | [10] 15.9 µM | [13] > 100 µM | [14] 32.7 µM | [15] 62.5 µM | [16] > 100 µM | [20] 31.6 µM | [17] 83.9 µM | [18] > 100 µM | [19] > 100 µM

CCCCCCCCC/C=C1\CC(CO)(COC(=O)c2ccccc2)OC1=O (stereo unspecified)
inactive: [1] 43.5 µM | [2] 42.4 µM | [3] 19.1 µM | [4] 22.4 µM | [6] 17.8 µM | [7] 29.8 µM | [8] 14.5 µM | [9] 23.2 µM | [10] 17.9 µM | [11] 17.8 µM | [12] 22.2 µM | [13] 15.3 µM | [14] 38.2 µM | [15] 23.8 µM | [16] 26 µM | [17] 25.4 µM | [18] 22.6 µM | [19] 19.4 µM

O=C(Nc1ccccc1)N1CC(CN2CCN(c3ccccc3)CC2)OC1=O (stereo unspecified)
inactive: [1] > 100 µM | [2] > 100 µM | [3] > 100 µM | [6] > 100 µM | [7] > 100 µM | [8] > 100 µM | [9] > 100 µM | [10] 80.9 µM | [11] > 100 µM | [12] > 100 µM | [13] > 100 µM | [14] > 100 µM | [15] > 100 µM | [16] > 100 µM | [20] > 100 µM | [17] > 100 µM | [18] > 100 µM | [19] > 100 µM

CCc1nc(N)c2nc(-c3ccc(C#N)cc3)oc2n1
inactive: [1] > 100 µM | [2] > 100 µM | [3] > 100 µM | [4] > 100 µM | [5] > 100 µM | [6] > 100 µM | [7] > 100 µM | [9] > 100 µM | [10] > 100 µM | [11] > 100 µM | [12] > 100 µM | [13] > 100 µM | [14] > 100 µM | [15] > 100 µM | [16] > 100 µM | [20] > 100 µM | [17] > 100 µM | [18] > 100 µM | [19] > 100 µM

CSc1c(C#N)c(=O)n(N)c2[nH]nc(C)c12
inactive: [1] > 100 µM | [2] > 100 µM | [3] > 100 µM | [5] > 100 µM | [6] > 100 µM | [8] > 100 µM | [9] > 100 µM | [10] > 100 µM | [12] > 100 µM | [13] > 100 µM | [14] > 100 µM | [15] > 100 µM | [16] 91.6 µM | [20] > 100 µM | [17] > 100 µM | [18] > 100 µM | [19] > 100 µM

COC1OC(C(C)O)C2OC(C)(C)OC12 (stereo unspecified)
inactive: [1] > 100 µM | [2] > 100 µM | [3] > 100 µM | [4] > 100 µM | [5] > 100 µM | [6] > 100 µM | [7] > 100 µM | [9] > 100 µM | [10] > 100 µM | [11] > 100 µM | [12] > 100 µM | [13] > 100 µM | [14] > 100 µM | [15] > 100 µM | [16] > 100 µM | [20] > 100 µM | [17] > 100 µM | [18] > 100 µM | [19] > 100 µM

O=C(O)CNCCc1ccccc1
inactive: [1] > 100 µM | [2] > 100 µM | [3] > 100 µM | [4] > 100 µM | [5] > 100 µM | [6] > 100 µM | [7] > 100 µM | [8] > 100 µM | [9] > 100 µM | [10] > 100 µM | [11] > 100 µM | [12] > 100 µM | [13] > 100 µM | [15] > 100 µM | [16] > 100 µM | [20] > 100 µM | [17] > 100 µM | [18] > 100 µM | [19] > 100 µM
